Source: patent US20240216352A1 (priority 2022, published 2024)

Tested on: healthy participants
Assay: Phase 1 Part B multiple ascending dose (MAD): blood pressure
Format: in vivo, human
Conditions: for Mean SBP: in mmHg (unit assumed)
Description: The study was performed in 3 parts in 112 healthy male and female participants, including 24 Japanese participants. Female participants were to be not of childbearing potential. The present study was designed to evaluate the safety and tolerability, PK, and exploratory PD of an oral suspension of Compound A. Parts A and B (Cohort B1 only) enrolled healthy participants and was conducted at a site in The Netherlands and Part B (Cohort B2 to B5) enrolled healthy non-Japanese participants and was conducted at a site in the United Kingdom (UK). Part C enrolled healthy Japanese participants and was conducted at the same site in the UK.
Part B was a MAD study in a planned number of 6 sequential dose escalation cohorts (10 mg QD, 30 mg QD, 30 mg BID, 60 mg BID, 125 mg BID, and ≤250 mg BID) of 8 healthy participants (6 active+2 placebo) each, under fasted conditions. However, Cohort B6 (≤250 mg BID) was cancelled because sufficient safety and PK data had been obtained at doses up to 125 mg BID. Eligible participants received study drug (Compound A or placebo) administered orally for 14 days.
Physical examinations, vital sign measurements (including orthostasis testing in Cohort A6, Cohort B3 to B5, and C1 to C3 at selected time points), 12-lead electrocardiogram (ECG), and clinical laboratory evaluations were performed at selected times throughout the study. In addition, Holter monitoring was performed for the first 24 hours post dose on Day 1 in Part A (not in FE/pH cohort), and also for the first 24 hours post dose on Day 1 and Day 14 in Parts B and C. Participants were closely monitored for adverse events (AEs). Blood samples were collected for up to 14 days (follow-up visit) after (last) study drug administration for PK analysis. In addition, blood and urine were collected for exploratory biomarker assessments and for biobanking of samples for potential analyses. Urine was collected for potential PK analysis for up to 96 hours after a single dose of Compound A or placebo was administered in the SAD part, and for up to 24 hours after the first (morning) dose of study drug on Day 1 and for up to 24 hours after the last (morning) dose of study drug on Day 14 in the MAD parts.

CCCN(C)C(=O)OCc1c(-c2ccc(O[C@H]3CCC[C@H](C(=O)O)C3)c(C)n2)nnn1C [Compound A, (1S,3S)-3-((2-methyl-6-(1-methyl-5-(((methyl(propyl)carbamoyl)-oxy)methyl)-1H-1,2,3-triazol-4-yl)pyridin-3-yl)oxy)cyclohexane-1-carboxylic acid]
Maximum of mean (±SD) reduction in DBP from baseline (MAD 10 mg QD (B1)): 6.8 ± 2.64 mmHg
Time of maximum mean DBP reduction (MAD 10 mg QD (B1)): 1-5 Day-h
Mean DBP (MAD 10 mg QD, D 1 2 h): 70.2 mmHg
Mean SBP (MAD 10 mg QD, D 1 2 h): 112.2
Mean DBP (MAD 10 mg QD, D 1 4 h): 65.8 mmHg
Mean SBP (MAD 10 mg QD, D 1 4 h): 109.5
Mean DBP (MAD 10 mg QD, D 1 8 h): 68.7 mmHg
Mean SBP (MAD 10 mg QD, D 1 8 h): 112.8
Mean DBP (MAD 10 mg QD, D 2 24 h): 65.3 mmHg
Mean SBP (MAD 10 mg QD, D 2 24 h): 108.5
Mean DBP (MAD 10 mg QD, D 14 312 h): 69.3 mmHg
Mean SBP (MAD 10 mg QD, D 14 312 h): 112.8
Mean DBP (MAD 10 mg QD, D 14 314 h): 67.5 mmHg
Mean SBP (MAD 10 mg QD, D 14 314 h): 113.5
Mean DBP (MAD 10 mg QD, D 14 317 h): 64.3 mmHg
Mean SBP (MAD 10 mg QD, D 14 317 h): 114.5
Mean DBP (MAD 10 mg QD, D 14 320 h): 67.5 mmHg
Mean SBP (MAD 10 mg QD, D 14 320 h): 111.2
Mean DBP (MAD 10 mg QD, D 15 336 h): 66.8 mmHg
Mean SBP (MAD 10 mg QD, D 15 336 h): 110.8
Maximum of mean (±SD) reduction in DBP from baseline (MAD 30 mg BID (B3)): 11.2 ± 4.58 mmHg
Maximum of mean (±SD) reduction in SBP from baseline (MAD 30 mg BID (B3)): 15.8 ± 10.19 mmHg
Time of maximum mean DBP reduction (MAD 30 mg BID (B3)): 1-5 Day-h
Time of maximum mean SBP reduction (MAD 30 mg BID (B3)): 1-5 Day-h
Mean DBP (MAD 30 mg BID, D 1 2 h): 63.3 mmHg
Mean SBP (MAD 30 mg BID, D 1 2 h): 106.5
Mean DBP (MAD 30 mg BID, D 1 4 h): 62.7 mmHg
Mean SBP (MAD 30 mg BID, D 1 4 h): 107.2
Mean DBP (MAD 30 mg BID, D 1 8 h): 63.2 mmHg
Mean SBP (MAD 30 mg BID, D 1 8 h): 106.3
Mean DBP (MAD 30 mg BID, D 2 24 h): 66.7 mmHg
Mean SBP (MAD 30 mg BID, D 2 24 h): 114.7
Mean DBP (MAD 30 mg BID, D 14 312 h): 68.7 mmHg
Mean SBP (MAD 30 mg BID, D 14 312 h): 119.7
Mean DBP (MAD 30 mg BID, D 14 314 h): 63.8 mmHg
Mean SBP (MAD 30 mg BID, D 14 314 h): 109.7
Mean DBP (MAD 30 mg BID, D 14 317 h): 61 mmHg
Mean SBP (MAD 30 mg BID, D 14 317 h): 114.3
Mean SBP (MAD 30 mg BID, D 14 320 h): 110.0
Mean DBP (MAD 30 mg BID, D 15 336 h): 65.3 mmHg
Mean SBP (MAD 30 mg BID, D 15 336 h): 116.3
Maximum of mean (±SD) reduction in DBP from baseline (MAD 30 mg QD (B2)): 8.8 ± 4.62 mmHg
Maximum of mean (±SD) reduction in SBP from baseline (MAD 30 mg QD (B2)): 10.7 ± 7.06 mmHg
Mean DBP (MAD 30 mg QD, D 1 2 h): 66.5 mmHg
Mean SBP (MAD 30 mg QD, D 1 2 h): 104.8
Mean DBP (MAD 30 mg QD, D 1 4 h): 67.8 mmHg
Mean SBP (MAD 30 mg QD, D 1 4 h): 102.3
Mean DBP (MAD 30 mg QD, D 1 8 h): 66 mmHg
Mean SBP (MAD 30 mg QD, D 1 8 h): 107.2
Mean DBP (MAD 30 mg QD, D 2 24 h): 67.3 mmHg
Mean SBP (MAD 30 mg QD, D 2 24 h): 114.3
Mean DBP (MAD 30 mg QD, D 14 312 h): 63.3 mmHg
Mean SBP (MAD 30 mg QD, D 14 312 h): 110.0
Mean DBP (MAD 30 mg QD, D 14 314 h): 63.5 mmHg
Mean SBP (MAD 30 mg QD, D 14 314 h): 101.7
Mean DBP (MAD 30 mg QD, D 14 317 h): 61.8 mmHg
Mean SBP (MAD 30 mg QD, D 14 317 h): 102.3
Mean DBP (MAD 30 mg QD, D 14 320 h): 63.2 mmHg
Mean SBP (MAD 30 mg QD, D 14 320 h): 101.5
Mean DBP (MAD 30 mg QD, D 15 336 h): 62.3 mmHg
Mean SBP (MAD 30 mg QD, D 15 336 h): 107.3
Maximum of mean (±SD) reduction in DBP from baseline (MAD 60 mg BID (B4)): 8.3 ± 6.89 mmHg
Maximum of mean (±SD) reduction in SBP from baseline (MAD 60 mg BID (B4)): 17.5 ± 11.31 mmHg
Time of maximum mean DBP reduction (MAD 60 mg BID (B4)): 3-4 Day-h
Mean DBP (MAD 60 mg BID, D 1 2 h): 64.5 mmHg
Mean SBP (MAD 60 mg BID, D 1 2 h): 110.2
Mean DBP (MAD 60 mg BID, D 1 4 h): 66 mmHg
Mean SBP (MAD 60 mg BID, D 1 4 h): 106.7
Mean DBP (MAD 60 mg BID, D 1 8 h): 64.7 mmHg
Mean SBP (MAD 60 mg BID, D 1 8 h): 109.3
Mean DBP (MAD 60 mg BID, D 2 24 h): 65.7 mmHg
Mean SBP (MAD 60 mg BID, D 2 24 h): 118.8
Mean DBP (MAD 60 mg BID, D 14 312 h): 64.8 mmHg
Mean SBP (MAD 60 mg BID, D 14 312 h): 111.8
Mean DBP (MAD 60 mg BID, D 14 314 h): 64 mmHg
Mean SBP (MAD 60 mg BID, D 14 314 h): 110.5
Mean DBP (MAD 60 mg BID, D 14 317 h): 62.5 mmHg
Mean SBP (MAD 60 mg BID, D 14 317 h): 114.8
Mean DBP (MAD 60 mg BID, D 14 320 h): 63 mmHg
Mean SBP (MAD 60 mg BID, D 14 320 h): 115.5
Mean DBP (MAD 60 mg BID, D 15 336 h): 64.5 mmHg
Mean SBP (MAD 60 mg BID, D 15 336 h): 114.5
Maximum of mean (±SD) reduction in DBP from baseline (MAD 125 mg BID (B5)): 14.7 ± 5.68 mmHg
Maximum of mean (±SD) reduction in SBP from baseline (MAD 125 mg BID (B5)): 14.5 ± 5.86 mmHg
Time of maximum mean DBP reduction (MAD 125 mg BID (B5)): 12-12 Day-h
Mean DBP (MAD 125 mg BID, D 1 2 h): 62.3 mmHg
Mean SBP (MAD 125 mg BID, D 1 2 h): 112.2
Mean DBP (MAD 125 mg BID, D 1 4 h): 64.7 mmHg
Mean SBP (MAD 125 mg BID, D 1 4 h): 112.2
Mean DBP (MAD 125 mg BID, D 1 8 h): 64.7 mmHg
Mean SBP (MAD 125 mg BID, D 1 8 h): 107.3
Mean DBP (MAD 125 mg BID, D 2 24 h): 66.3 mmHg
Mean SBP (MAD 125 mg BID, D 2 24 h): 118.8
Mean DBP (MAD 125 mg BID, D 14 312 h): 62 mmHg
Mean SBP (MAD 125 mg BID, D 14 312 h): 111.3
Mean DBP (MAD 125 mg BID, D 14 314 h): 65 mmHg
Mean SBP (MAD 125 mg BID, D 14 314 h): 116.0
Mean DBP (MAD 125 mg BID, D 14 317 h): 59.2 mmHg
Mean SBP (MAD 125 mg BID, D 14 317 h): 116.3
Mean DBP (MAD 125 mg BID, D 14 320 h): 61.8 mmHg
Mean SBP (MAD 125 mg BID, D 14 320 h): 114.5
Mean DBP (MAD 125 mg BID, D 15 336 h): 63 mmHg
Mean SBP (MAD 125 mg BID, D 15 336 h): 111.3
BP reductions versus placebo (MAD BID groups): no clear differences between placebo and the Compound A groups
Dose dependence of mean SBP and DBP reductions (MAD QD groups): reductions generally occurred in a Compound A dose-dependent manner
